From US12246036B2, “Composition for use in the prevention and in the treatment of iron deficiency” (PHARMANUTRA S.P.A., priority 2017, dated 2025)

Tests used:
[1] = Dilution test of iron compositions in sterile PBS and cell culture medium (dissolution properties); assay type: physicochemical; settings: for appearance after initial ten-fold dilution: 3 mg/ml of iron, PBS and medium; for appearance after further ten-fold dilution: 300 micrograms/ml of iron
Method: (§1) The iron content of the compounds (with the exception of the vitamin D and the sucrosomial matrix) was 30 mg/ml. A 1:100 dilution was performed for all of the compounds in sterile PBS in order to obtain an iron concentration of 300 micrograms/ml. […] The final iron concentration used in the experiments has been described elsewhere (Barisani et al. “Iron overload and gene expression in HepG2 cells: analysis by differential display” FEBS Letters 2000, 469, 208-212). The compounds (initial dilution of […]) were diluted in an incomplete FBS-free medium (RPMI 1640 for the U937 cells, EMEM for the HepG2 cells) with a dilution factor of 1:6 for a final iron concentration of 50 micrograms/ml. A test was conducted to assess the effect of the compounds on the cell cultures: induced FlepG2 and U937 were seeded a with a cell density of 650,000 cells/ml in 6 wells (final volume 1.5 ml/well). After 24 hours the medium was replaced with a new FBS-free (incomplete) one containing 50 µg/ml of iron and after 24 hours the cells were macroscopically checked (visual inspection using a microscope).
Before the cells were treated with the selected compounds, they were tested to assess their dissolution properties. The compounds were diluted in sterile PBS and in the standard cell culture medium (EMEM).

U937 cells = settings: 50 micrograms/ml of iron, 24 hours
Method: as §1

hepcidin = assay: Hepcidin produced by LPS-stimulated HepG2 cells in supernatant (ELISA); assay type: cell-based, human; settings: LPS-stimulated HepG2, 18 hours of treatment; combination compared to vitamin D alone or sucrosomial iron alone (FIG. 2)
Method: The HepG2 cells were seeded in 6 wells at a concentration of 650,000 cells/ml (1.5 ml/well). The plates were incubated for 24 hours at 37° C. and 5% CO2 first. Afterwards, the 24-hour medium was replaced with an incomplete EMEM without FEM, containing 40 ng/ml of LPS. A control well was prepared with an LPS-FBS-free incomplete medium. After 20 hours of incubation at 37° C. and 5% CO2, the medium was replaced with the iron treatment solutions (medium containing 50 µg/ml of iron). In the control well, the medium was replaced by an incomplete FBS-free EMEM medium. Another control well without iron was prepared, replacing a container containing LPS with a fresh incomplete FBS-free medium. After 6, 18 and 24 ore, the hours, the supernatants were collected from the wells, centrifugated for 10 minutes at 1000 g, transferred into a new tube and stored a −20° C. for the analysis of hepcidin and CRP. The cells of each well collected were detached using trypsin and counted using Trypan blue with a Bürker counting chamber.

Compound	appearance after initial ten-fold dilution [1]	appearance after further ten-fold dilution [1]	effect on the cytoplasmic volume of the cells (U937 cells)	appearance of the compounds before dilution in PBS / EMEM ([1]; compounds as supplied (30 mg/ml iron))	hepcidin level/expression in supernatants of HepG2 cells (hepcidin)
O=P([O-])([O-])OP(=O)([O-])[O-].O=P([O-])([O-])OP(=O)([O-])[O-].O=P([O-])([O-])OP(=O)([O-])[O-].[Fe+3].[Fe+3].[Fe+3].[Fe+3] [iron pyrophosphate]	changed the colour (pH) of the medium from red to yellow	no evident colour change	–	–	–
O=S(=O)([O-])[O-].[Fe+2] [iron sulphate]	changed the colour (pH) of the medium from red to yellow	moderate colour change	loss of volume	separated in two phases	–
vitamin D	no problems	–	–	–	higher
